Data from US9302999B2, “Substituted triazoles as herbicides” (E. I. DU PONT DE NEMOURS AND COMPANY, priority 2012, dated 2016).

Key:
[1] = test system: panicum, fall (fall panicum Panicum dichotomiflorum); experiment: Test F pre-/postemergence: panicum, fall; assay type: in vivo; conditions: Preemergence
Description: (§1) Seeds of plant species selected from corn (Zea mays), soybean (Glycine max), velvetleaf (Abutilon theophrasti), lambsquarters (Chenopodium album), poinsettia, wild (wild poinsettia, Euphorbia heterophylla), pigweed, palmer (palmer pigweed, Amaranthus palmeri), waterhemp (common waterhemp, Amaranthus rudis), surinam grass (Brachiaria decumbens), crabgrass, Brazil (Brazilian crabgrass, Digitaria horizontalis), panicum, fall (fall panicum Panicum dichotomiflorum), crabgrass, large (large crabgrass, Digitaria sanguinalis), foxtail, giant (giant foxtail, Setaria faberii), foxtail, green (green foxtail Setaria viridis), goosegrass (Eleusine indica), ragweed (common ragweed, Ambrosia elatior), barnyardgrass (Echinochloa crus-galli), sandbur (southern sandbur, Cenchrus echinatus), arrowleaf sida (Sida rhombifolia), ryegrass, Italian (Italian ryegrass, Lolium multiflorum), dayflower, VA (Virginia (VA) dayflower, Commelina virginica), field bindweed (Convolvulus arvensis), cocklebur (common cocklebur, Xanthium strumarium), morningglory (Ipomoea coccinea), nightshade (eastern black nightshade, Solanum ptycanthum), kochia (Kochia scoparia), nutsedge, yellow (yellow nutsedge, Cyperus esculentus), johnsongrass (Sorghum halepense), smartweed (ladysthumb smartweed, Polygonum persicaria), and beggarticks (hairy beggarticks, Bidens pilosa), were planted into a silt loam soil and treated preemergence with test chemicals formulated in a non-phytotoxic solvent mixture which included a surfactant. At the same time, plants selected from these crop and weed species and also pigweed (Amaranthus retroflexus), waterhemp_RES1 (ALS/Triazine resistant common waterhemp, Amaranthus rudis) and waterhemp_RES2 (ALS/HPPD resistant common waterhemp, Amaranthus rudis) were planted in pots containing a planting medium comprising spaghnum peat moss, vermiculite, wetting agent and starter nutrients treated with postemergence applications of some of the test chemicals formulated in the same manner. Plants ranged in height from 2 to 18 cm for postemergence treatments (1- to 4-leaf stage).
(§2) Treated plants and controls were maintained in a greenhouse for 14 to 21 days, after which time all species were compared to controls and visually evaluated. Plant response ratings, summarized in Table E, are based on a scale of 0 to 100 where 0 is no effect and 100 is complete control. A dash (-) response means no test result.

[2] = test system: cocklebur (common cocklebur, Xanthium strumarium); experiment: Test F pre-/postemergence: cocklebur; assay type: in vivo; conditions: Preemergence
Description: as §1, §2

[3] = test system: Waterhemp; experiment: Test C preemergence: waterhemp; assay type: in vivo, Amaranthus rudis; conditions: 125 g ai/ha, scale 0 to 100, 0 no effect, 100 complete control
[4] = test system: morningglory (Ipomoea coccinea); experiment: Test F pre-/postemergence: morningglory; assay type: in vivo; conditions: Preemergence
Description: as §1, §2

[5] = test system: crabgrass, large (large crabgrass, Digitaria sanguinalis); experiment: Test F pre-/postemergence: crabgrass, large; assay type: in vivo; conditions: Preemergence
Description: as §1, §2

[6] = test system: barnyardgrass (Echinochloa crus-galli); experiment: Test F pre-/postemergence: barnyardgrass; assay type: in vivo; conditions: Preemergence
Description: as §1, §2

[7] = test system: ragweed (common ragweed, Ambrosia elation); experiment: Test E pre-/postemergence: ragweed; assay type: in vivo; conditions: Preemergence, scale 0 to 100
Description: (§3) Seeds of plant species selected from corn (Zea mays), soybean (Glycine max), velvetleaf (Abutilon theophrasti), lambsquarters (Chenopodium album), poinsettia, wild (wild poinsettia, Euphorbia heterophylla), pigweed, palmer (palmer pigweed, Amaranthus palmeri), waterhemp (common waterhemp, Amaranthus rudis), smartweed (ladysthumb smartweed, Polygonum persicaria), surinam grass (Brachiaria decumbens), crabgrass, large (large crabgrass, Digitaria sanguinalis), crabgrass, Brazil (Brazilian crabgrass, Digitaria horizontalis), panicum, fall (fall panicum, Panicum dichotomiflorum), foxtail, giant (giant foxtail, Setaria faberii), foxtail, green (green foxtail, Setaria viridis), goosegrass (Eleusine indica), johnsongrass (Sorghum halepense), ragweed (common ragweed, Ambrosia elation), barnyardgrass (Echinochloa crus-galli), sandbur (southern sandbur, Cenchrus echinatus), arrowleaf sida (Sida rhombifolia), ryegrass, Italian (Italian ryegrass, Lolium multiflorum), dayflower, (VA) (Virginia dayflower, Commelina virginica), field bindweed (Convolvulus arvensis), cocklebur (common cocklebur, Xanthium strumarium), morningglory (Ipomoea coccinea), nightshade (eastern black nightshade, Solanum ptycanthum), kochia (Kochia scoparia), nutsedge, yellow (yellow nutsedge, Cyperus esculentus) and beggarticks (hairy beggarticks, Bidens pilosa) were planted into a silt loam soil and treated preemergence with test chemicals formulated in a non-phytotoxic solvent mixture which included a surfactant. At the same time, plants selected from these crop and weed species were planted in pots containing a growing medium comprising spaghnum peat moss, vermiculite, wetting agent and starter nutrients and treated with postemergence applications of some of the test chemicals formulated in the same manner. Plants ranged in height from 2 to 18 cm for postemergence treatments (1- to 4-leaf stage).
as §2

[8] = test system: waterhemp (common waterhemp, Amaranthus rudis); experiment: Test E pre-/postemergence: waterhemp; assay type: in vivo; conditions: scale 0 to 100
Description: as §3, §2

[9] = test system: poinsettia, wild (wild poinsettia, Euphorbia heterophylla); experiment: Test E pre-/postemergence: poinsettia, wild; assay type: in vivo; conditions: scale 0 to 100
Description: as §3, §2

[10] = 16 g ai/ha, scale 0 to 100 (0 no effect, 100 complete control)
[11] = 31 g ai/ha, scale 0 to 100 (0 no effect, 100 complete control)

SMILES	Plant response rating, Panicum, Fall [1, 10]	Plant response rating, Panicum, Fall [1, 11]	Plant response rating, Panicum, Fall ([1]; 125 g ai/ha, scale 0 to 100)	Plant response rating, Cocklebur [2, 10]	Plant response rating, Cocklebur ([2]; 62 g ai/ha, scale 0 to 100)	Plant response rating, Morningglory [4, 10]	Plant response rating, Morningglory [4, 11]	Plant response rating, Morningglory ([4]; 125 g ai/ha, scale 0 to 100)	Plant response rating, Crabgrass, Large [5, 11]	Plant response rating, Crabgrass, Large ([5]; 62 g ai/ha, scale 0 to 100)	Plant response rating, Crabgrass, Large ([5]; 125 g ai/ha, scale 0 to 100)	Plant response rating, Barnyardgrass [6, 10]	Plant response rating, Barnyardgrass [6, 11]	Plant response rating, Barnyardgrass ([6]; 62 g ai/ha, scale 0 to 100)	Plant response rating, Barnyardgrass ([6]; 125 g ai/ha, scale 0 to 100)	Plant response rating: Ragweed ([7]; 16 g ai/ha)	Plant response rating: Ragweed ([7]; 31 g ai/ha)	Plant response rating: Ragweed ([7]; 62 g ai/ha)	Plant response rating: Ragweed ([7]; 125 g ai/ha)	Plant response rating: Waterhemp ([8]; Preemergence, 16 g ai/ha)	further results
CCCc1nn(-c2ccc(F)cc2)nc1Cc1ccnc(C(F)(F)F)c1 [Compound 153]	5	100	100	0	0	0	30	65	95	100	100	5	10	10	75						Plant response rating, Panicum, Fall ([1]; 250 g ai/ha, scale 0 to 100): 100; Plant response rating, Waterhemp [3]: 100; Plant response rating, Morningglory ([4]; 250 g ai/ha, scale 0 to 100): 65; Plant response rating, Crabgrass, Large [5, 10]: 80; Plant response rating, Crabgrass, Large ([5]; 250 g ai/ha, scale 0 to 100): 100; Plant response rating, Barnyardgrass ([6]; 250 g ai/ha, scale 0 to 100): 100
Cc1nn(-c2ccc(F)cc2)nc1Oc1ccnc(C(F)(F)F)c1 [Compound 129, 4-[[2-(4-fluorophenyl)-5-methyl-2H-1,2,3-triazol-4-yl]oxy]-2-(trifluoromethyl)pyridine]																0	5	20	20	35	Plant response rating: Ragweed ([7]; 8 g ai/ha): 0; Plant response rating: Waterhemp ([8]; Preemergence, 8 g ai/ha): 20; Plant response rating: Waterhemp ([8]; Preemergence, 31 g ai/ha): 80; Plant response rating: Waterhemp ([8]; Preemergence, 62 g ai/ha): 100; Plant response rating: Waterhemp ([8]; Preemergence, 125 g ai/ha): 100; Plant response rating: Poinsettia, Wild ([9]; Preemergence, 8 g ai/ha): 0; Plant response rating: Poinsettia, Wild ([9]; Preemergence, 16 g ai/ha): 0; Plant response rating: Poinsettia, Wild ([9]; Preemergence, 31 g ai/ha): 0; Plant response rating: Poinsettia, Wild ([9]; Preemergence, 62 g ai/ha): 0; Plant response rating: Poinsettia, Wild ([9]; Preemergence, 125 g ai/ha): 25
Cc1nn(-c2ccc(C(F)(F)F)cc2)nc1Cc1ccnc(C(F)(F)F)c1 [Compound 47, 4-[[5-methyl-2-[4-(trifluoromethyl)phenyl]-2H-1,2,3-triazol-4-yl]methyl]-2-(trifluoromethyl)pyridine]																0	0	10	50	100	Plant response rating: Ragweed ([7]; 250 g ai/ha): 90; Plant response rating: Waterhemp ([8]; Postemergence, 250 g ai/ha): 95; Plant response rating: Waterhemp ([8]; Postemergence, 16 g ai/ha): 60; Plant response rating: Waterhemp ([8]; Postemergence, 31 g ai/ha): 70; Plant response rating: Waterhemp ([8]; Postemergence, 62 g ai/ha): 80; Plant response rating: Waterhemp ([8]; Postemergence, 125 g ai/ha): 85; Plant response rating: Waterhemp ([8]; Preemergence, 31 g ai/ha): 100; Plant response rating: Waterhemp ([8]; Preemergence, 62 g ai/ha): 100; Plant response rating: Waterhemp ([8]; Preemergence, 125 g ai/ha): 100; Plant response rating: Waterhemp ([8]; Preemergence, 250 g ai/ha): 100; Plant response rating: Poinsettia, Wild ([9]; Postemergence, 250 g ai/ha): 100; Plant response rating: Poinsettia, Wild ([9]; Postemergence, 16 g ai/ha): 75; Plant response rating: Poinsettia, Wild ([9]; Postemergence, 31 g ai/ha): 75; Plant response rating: Poinsettia, Wild ([9]; Postemergence, 62 g ai/ha): 90; Plant response rating: Poinsettia, Wild ([9]; Postemergence, 125 g ai/ha): 98; Plant response rating: Poinsettia, Wild ([9]; Preemergence, 16 g ai/ha): 0; Plant response rating: Poinsettia, Wild ([9]; Preemergence, 31 g ai/ha): 25; Plant response rating: Poinsettia, Wild ([9]; Preemergence, 62 g ai/ha): 40; Plant response rating: Poinsettia, Wild ([9]; Preemergence, 125 g ai/ha): 65; Plant response rating: Poinsettia, Wild ([9]; Preemergence, 250 g ai/ha): 100
Fc1ccc(-n2nc(Cc3ccnc(C(F)(F)F)c3)c(OCC(F)(F)F)n2)cc1 [Compound 142]	25	65	100	0	0	0	0	35	20	98	100	0	5	30	80						Plant response rating, Cocklebur [2, 11]: 0
